Measurements taken from patent US20220305012A1, “L[…] TREATING SLEEP ISSUES” (EISAI R&D MANAGEMENT CO., LTD., priority 2019, published 2022).

Columns and labels:
[1] = system: Subjects Having Insomnia Disorder; assay: Example 2: latency to persistent sleep (LPS), polysomnography; format: in vivo, human; details: 6.25 mg
Procedure: As used herein, the term “latency to persistent sleep”, abbreviated as “LPS.” means the minutes from lights off to the first epoch of 20 consecutive epochs (10 minutes) of non-wakefulness.
(§1) In some embodiments, a sleep parameter is determined objectively using polysomnography. Polysomnography is the monitoring of multiple electrophysiological parameters during sleep and generally includes measurement of EEG activity, electro-oculographic activity and electromyographic activity, as well as other measurements.
LPS—latency to persistent sleep: minutes from lights off to the first epoch of 20 consecutive epochs of non-wakefulness.
(§2) The treatment period lasted for 31 days. Subjects were randomized in a double-blind manner and received placebo, a tablet containing 5 mg of lemborexant, a tablet containing 10 mg of lemborexant, or a tablet containing 6.25 mg of zolpidem ER.
(§3) Within 5 minutes of the subject's mean habitual bedtime, study drug was administered and an overnight polysomnogram recording was initiated. At completion of the recording the following morning (Day 2), postural stability and cognitive performance were assessed. On the Day 2 evening, subjects returned to the clinic and a blood sample was collected before administering study drug, and then study drug was administered within 5 minutes of the subject's mean habitual bedtime. Again, a polysomnogram recording was initiated. The next morning (Day 3), postural stability and cognitive performance were assessed. A blood sample was also collected.
(§4) On Day 29, subjects returned to the clinic. Study drug was administered within 5 minutes of the subject's mean habitual bedtime and a polysomnogram recording was conducted. On the following morning (Day 30), postural stability and cognitive performance were assessed. After 1.5 hours of waketime, subjects rated their morning sleepiness level.
(§5) On the evening of Day 30, subjects returned to the clinic. A pre-dose blood sample was collected and study drug was again administered within 5 minutes of the subject's mean habitual bedtime. A polysomnogram recording was initiated. The following morning (Day 31), postural stability and cognitive performance were assessed and a blood sample was obtained. The ISI, FSS, EQ-5D-3L and PGI-Insomnia were administered. Blood and urine samples were collected for routine safety assessment. An electrocardiogram was performed, and vital signs and weight were assessed. The eC-SSRS was then administered to the subject. At 1.5 hours after waketime, subjects rated their morning sleepiness level.
The primary endpoint was to determine the change from baseline for mean latency to persistent sleep on days 29 and 30 of 5 mg or 10 mg lemborexant compared to placebo.

[2] = system: Subjects Having Insomnia Disorder; assay: Example 2: sleep efficiency (SE), polysomnography; format: in vivo, human; details: Zolpidem ER 6.25 mg
Procedure: as §1
SE—sleep efficiency: proportion of time spent asleep per time in bed, calculated as TST/interval from lights off until lights on.
as §2, §3, §4, §5
One key secondary endpoint was to determine the change from baseline for mean sleep efficiency on Days 29 and 30 after administration of 5 mg or 10 mg of lemborexant, compared to placebo.

[3] = system: Subjects Having Insomnia Disorder; assay: Example 2: total sleep time (TST), polysomnography; format: in vivo, human; details: Zolpidem ER 6.25 mg
Procedure: as §1
TST—total sleep time: minutes of sleep from sleep onset until terminal awakening.
as §2, §3, §4, §5

[4] = system: Subjects Having Insomnia Disorder; assay: Example 2: subjective wake after sleep onset (sWASO), sleep diary; format: in vivo, human; details: Zolpidem ER 6.25 mg
From the text: As used herein, the term “subjective wake after sleep onset”, abbreviated as “sWASO”, means the sum of estimated minutes of wake during the night after initial sleep onset until the time the subject stopped trying to sleep for the night, operationalized as the time the subject got out of bed for the day. In some embodiments, sWASO is derived from data entered in a subject's Sleep Diary. As used herein, an “improvement of sWASO” means a reduction in sWASO.
In some embodiments, sleep diaries were used to assess sleep parameters reported by subjects (i.e., subjective assessments) including subjective sleep onset latency (sSOL), subjective sleep efficiency (sSE), subjective WASO (sWASO), and subjective total sleep time (sTST). Subjects were instructed to complete the Sleep Diary developed based on the consensus Sleep Diary as described in Carney et al., “The consensus sleep diary: standardizing prospective sleep self-monitoring,” Sleep 2012; 35(2):287-302. In some embodiments, the Sleep Diary was used to assess the subject's global perception of quality of sleep on the previous night with the following question: “How would you rate the quality of your sleep last night?” Subjects rated the quality of their sleep on a scale from 1 to 9, with 1 being extremely poor and 9 being extremely good. In some embodiments, the Sleep Diary was used to assess subjective ratings of morning sleepiness with the following question: “How alert/sleepy do you feel this morning?” Subjects rated their sleepiness/alertness level on a Likert scale from 1 to 9, with 1 being extremely sleepy and 9 being extremely alert.
sWASO—subjective wake after sleep onset: sum of estimated minutes of wake during the night after initial sleep onset until the time the subject stopped trying to sleep for the night, operationalized as the time the subject got out of bed for the day.
as §2
Once home, the subject ingested study drug each night prior to bedtime and completed their sleep diary within 1 hour of waketime.

[5] = system: Subjects Having Insomnia Disorder; assay: Example 2: auditory awakening threshold; details: Zolpidem 6.25 mg

## Cc1ccc(-c2nc3ccc(C)cn3c2CC(=O)N(C)C)cc1 [Zolpidem ER, zolpidem, reference compound]
[1]; Days 1/2
  LPS LSM treatment ratio: Active/Placebo: 0.972
  LPS, Mean: 31.87 min
  LPS, Median: 27.00 min
[1]; Days 29/30
  LPS LSM treatment ratio: Active/Placebo: 1.218
  LPS, Mean: 37.11 min
  LPS, Median: 28.50 min
[1]; Study Baseline
  LPS, Mean: 44.52 min
  LPS, Median: 31.50 min
[1]; at Days 1/2
  LPS Change from Study Baseline, Mean: -12.56 min
  LPS Change from Study Baseline, Median: -5.63 min
[1]; at Days 29/30
  LPS Change from Study Baseline, Mean: -7.51 min
  LPS Change from Study Baseline, Median: -2.88 min
[2]; Days 1/2
  Sleep Efficiency, Change from Study Baseline, Mean (SD): 11.70 (9.725)
  Sleep Efficiency, Change from Study Baseline, Median: 10.83
  Sleep Efficiency, Mean (SD): 79.85 (8.461)
  Sleep Efficiency, Median: 80.73
[2]; Days 29/30
  Sleep Efficiency, Change from Study Baseline, Mean (SD): 9.06 (11.230)
  Sleep Efficiency, Change from Study Baseline, Median: 8.39
  Sleep Efficiency, Mean (SD): 77.17 (10.185)
  Sleep Efficiency, Median: 78.70
[3]; Days 1/2
  Total Sleep Time, Change from Study Baseline, Mean (SD): 55.31 (48.138)
  Total Sleep Time, Change from Study Baseline, Median: 52.00
  Total Sleep Time, Mean (SD): 382.42 (41.528)
  Total Sleep Time, Median: 387.25
[3]; Days 29/30
  Total Sleep Time, Change from Study Baseline, Mean (SD): 43.34 (54.012)
  Total Sleep Time, Change from Study Baseline, Median: 39.63
  Total Sleep Time, Mean (SD): 370.25 (48.855)
  Total Sleep Time, Median: 377.75
[4]; First 7 Nights of Treatment
  Subjective Wake After Sleep Onset, Change from Study Baseline, Mean (SD): −48.91 (51.761)
  Subjective Wake After Sleep Onset, Mean (SD): 124.83 (75.279)
  Subjective Wake After Sleep Onset, Model-adjusted change from baseline: −48.09
[4]; Last 7 Nights of Treatment
  Subjective Wake After Sleep Onset, Change from Study Baseline, Mean (SD): −63.52 (64.161)
  Subjective Wake After Sleep Onset, Mean (SD): 109.63 (72.583)
  Subjective Wake After Sleep Onset, Model-adjusted change from baseline: −62.00
[5]
  Auditory Awakening Threshold, LSM - Difference vs. Placebo: 7.2
  Auditory Awakening Threshold, Mean (SD): 58.4
  Auditory Awakening Threshold, Median: 55.0
